Test results: patent publication US12016958B2, “Method for delivering an agent to posterior segment of an eye and uses thereof” (NANO TARGETING & THERAPY BIOPHARMA INC., priority 2021, dated 2024)

Experiment: Solubility of AXT in water
Type: physicochemical

Solubility in water: poorly soluble in water
Compound: CNC(=O)c1ccccc1Sc1ccc2c(/C=C/c3ccccn3)n[nH]c2c1 [AXT, Axitinib]
